The target in the assay is T1, BRM (Homo sapiens, UniProt P51531).
T1 construct: In-Cell Western Screen of BRM Degradation in SW1573 Cells; endogenous in cells; host or cells: SW1573
The experiment in a line: In-cell Western screen of BRM degradation in SW1573 cells (Dmax and DC50). The note with it: for DC50: target protein degradation, read-out: BRM DC50; for Dmax: SW1573, % degraded, when tested at the top concentration of between 0.3 and 10 μM, read-out: BRM Dmax (%). Type of assay: cell-based. The method in brief: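 Near-infrared imaging on a LI-COR Odyssey (800 and 680 nm channels) quantifies BRM remaining in fixed SW1573 cells. Cells are dosed for 18-20 h at 0.1% final DMSO, and degradation is expressed as Dmax and DC50.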

Structures are written as SMILES.

For orientation: DC50 means the midpoint of the concentration-degradation curve. What is called Dmax is the largest share of the target that was removed.

T1 sequence (P51531 whole entry): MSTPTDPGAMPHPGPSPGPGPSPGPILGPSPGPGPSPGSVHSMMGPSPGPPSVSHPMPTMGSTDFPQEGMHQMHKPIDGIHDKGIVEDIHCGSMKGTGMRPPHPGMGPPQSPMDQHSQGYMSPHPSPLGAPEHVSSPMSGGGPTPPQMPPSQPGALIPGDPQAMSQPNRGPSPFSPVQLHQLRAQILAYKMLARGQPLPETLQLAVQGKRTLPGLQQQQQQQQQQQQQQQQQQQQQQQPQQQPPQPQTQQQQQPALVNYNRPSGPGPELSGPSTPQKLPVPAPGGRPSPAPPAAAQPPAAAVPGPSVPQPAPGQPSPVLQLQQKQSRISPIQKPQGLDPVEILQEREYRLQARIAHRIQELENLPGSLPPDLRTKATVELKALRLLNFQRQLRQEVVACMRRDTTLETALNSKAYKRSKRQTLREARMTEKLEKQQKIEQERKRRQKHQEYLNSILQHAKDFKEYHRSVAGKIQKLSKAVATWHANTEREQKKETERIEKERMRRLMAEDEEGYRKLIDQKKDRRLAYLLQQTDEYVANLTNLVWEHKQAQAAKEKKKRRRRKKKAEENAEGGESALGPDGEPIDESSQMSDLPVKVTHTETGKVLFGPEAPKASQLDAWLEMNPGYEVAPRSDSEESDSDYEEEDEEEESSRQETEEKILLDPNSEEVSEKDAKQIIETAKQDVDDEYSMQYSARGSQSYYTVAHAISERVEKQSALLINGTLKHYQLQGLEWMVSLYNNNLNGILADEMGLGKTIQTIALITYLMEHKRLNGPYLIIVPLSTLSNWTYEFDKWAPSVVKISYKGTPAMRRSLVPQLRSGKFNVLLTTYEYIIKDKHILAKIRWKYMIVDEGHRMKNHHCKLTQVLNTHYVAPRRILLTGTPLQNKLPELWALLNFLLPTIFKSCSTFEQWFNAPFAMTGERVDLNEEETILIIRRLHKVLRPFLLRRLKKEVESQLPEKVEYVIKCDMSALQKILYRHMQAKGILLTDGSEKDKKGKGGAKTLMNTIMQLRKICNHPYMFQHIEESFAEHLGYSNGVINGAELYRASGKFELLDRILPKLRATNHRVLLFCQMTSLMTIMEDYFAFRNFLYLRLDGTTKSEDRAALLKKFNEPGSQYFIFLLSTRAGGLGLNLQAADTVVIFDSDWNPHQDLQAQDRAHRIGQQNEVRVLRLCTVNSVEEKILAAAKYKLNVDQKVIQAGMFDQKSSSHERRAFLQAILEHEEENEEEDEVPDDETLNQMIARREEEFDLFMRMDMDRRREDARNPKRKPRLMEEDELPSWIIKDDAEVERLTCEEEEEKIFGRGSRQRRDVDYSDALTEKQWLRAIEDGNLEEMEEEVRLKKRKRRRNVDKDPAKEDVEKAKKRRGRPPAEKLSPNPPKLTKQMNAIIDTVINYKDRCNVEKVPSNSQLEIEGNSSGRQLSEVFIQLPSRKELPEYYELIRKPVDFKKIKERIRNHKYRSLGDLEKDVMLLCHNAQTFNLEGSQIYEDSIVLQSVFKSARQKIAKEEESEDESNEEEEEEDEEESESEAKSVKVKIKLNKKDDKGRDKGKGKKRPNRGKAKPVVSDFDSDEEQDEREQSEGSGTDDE

In the case of `Cc1nccn1-c1ccc([C@H](C)NC(=O)[C@@H]2C[C@@H](O)CN2C(=O)[C@H](c2cc(N3CCC(OC4CCN(C[C@H]5C[C@H](Oc6cc(N7C8CCC7CN(c7cc(-c9ccccc9O)nnc7N)C8)ccn6)C5)CC4)CC3)no2)C(C)C)cc1` [compound 477, (2S,4R)-1-((2S)-2-(3-(4-((1-(((1r,3r)-3-((4-(3-(3-amino-6-(2-hydroxyphenyl)pyridazin-4-yl)-3,8-diazabicyclo[3.2.1]octan-8-yl)pyridin-2-yl)oxy)cyclobutyl)methyl)piperidin-4-yl)oxy)piperidin-1-yl)isoxazol-5-yl)-3-methylbutanoyl)-4-hydroxy-N-((S)-1-(4-(2-methyl-1H-imidazol-1-yl)phenyl)ethyl)pyrrolidine-2-carboxamide], the DC50 is greater than 0.03 µM. In the case of `Cc1nccn1-c1ccc([C@H](C)NC(=O)[C@@H]2C[C@@H](O)CN2C(=O)[C@@H](c2cc(N3CCC(OC4CCN(C[C@H]5C[C@H](Oc6cc(N7C8CCC7CN(c7cc(-c9ccccc9O)nnc7N)C8)ccn6)C5)CC4)CC3)no2)C(C)C)cc1` [compound 478, (2S,4R)-1-((2R)-2-(3-(4-((1-(((1r,3r)-3-((4-(3-(3-amino-6-(2-hydroxyphenyl)pyridazin-4-yl)-3,8-diazabicyclo[3.2.1]octan-8-yl)pyridin-2-yl)oxy)cyclobutyl)methyl)piperidin-4-yl)oxy)piperidin-1-yl)isoxazol-5-yl)-3-methylbutanoyl)-4-hydroxy-N-((S)-1-(4-(2-methyl-1H-imidazol-1-yl)phenyl)ethyl)pyrrolidine-2-carboxamide], the greatest degradation seen (Dmax) is greater than 75% and the DC50 was less than 0.0025 µM.

In the case of `Cc1ncsc1-c1ccc([C@H](C)NC(=O)[C@@H]2C[C@@H](O)CN2C(=O)[C@H](c2cc(OC[C@@H]3C[C@H]3c3ccc(O[C@H]4C[C@H](Oc5cc(N6C7CCC6CN(c6cc(-c8ccccc8O)nnc6N)C7)ccn5)C4)cn3)no2)C(C)C)cn1` [compound 479, (2S,4R)-1-((2S)-2-(3-(((1R,2R)-2-(5-((1r,3R)-3-((4-(3-(3-amino-6-(2-hydroxyphenyl)pyridazin-4-yl)-3,8-diazabicyclo[3.2.1]octan-8-yl)pyridin-2-yl)oxy)cyclobutoxy)pyridin-2-yl)cyclopropyl)methoxy)isoxazol-5-yl)-3-methylbutanoyl)-4-hydroxy-N-((S)-1-(6-(4-methylthiazol-5-yl)pyridin-3-yl)ethyl)pyrrolidine-2-carboxamide], the DC50 is greater than 0.03 µM.

Regarding `Cc1ncsc1-c1ccc([C@H](C)NC(=O)[C@@H]2C[C@@H](O)CN2C(=O)[C@@H](c2cc(OC[C@@H]3C[C@H]3c3ccc(O[C@H]4C[C@H](Oc5cc(N6C7CCC6CN(c6cc(-c8ccccc8O)nnc6N)C7)ccn5)C4)cn3)no2)C(C)C)cn1` [compound 480, (2S,4R)-1-((2R)-2-(3-(((1R,2R)-2-(5-((1r,3R)-3-((4-(3-(3-amino-6-(2-hydroxyphenyl)pyridazin-4-yl)-3,8-diazabicyclo[3.2.1]octan-8-yl)pyridin-2-yl)oxy)cyclobutoxy)pyridin-2-yl)cyclopropyl)methoxy)isoxazol-5-yl)-3-methylbutanoyl)-4-hydroxy-N-((S)-1-(6-(4-methylthiazol-5-yl)pyridin-3-yl)ethyl)pyrrolidine-2-carboxamide], the greatest degradation seen (Dmax) was greater than 75% and the half-maximal degradation concentration (DC50) is less than 0.0025 µM. `Cc1cc([C@@H](C(=O)N2C[C@H](O)C[C@H]2C(=O)N[C@@H](C)c2ccc(-c3scnc3C)cc2)[C@@H](C)CO[C@H]2C[C@@H](Oc3cc(N4C5CCC4CN(c4cc(-c6ccccc6O)nnc4N)C5)ccn3)C2)on1` [compound 481, (2S,4R)-1-((2S,3R)-4-((1s,3S)-3-((4-(3-(3-amino-6-(2-hydroxyphenyl)pyridazin-4-yl)-3,8-diazabicyclo[3.2.1]octan-8-yl)pyridin-2-yl)oxy)cyclobutoxy)-3-methyl-2-(3-methylisoxazol-5-yl)butanoyl)-4-hydroxy-N-((S)-1-(4-(4-methylthiazol-5-yl)phenyl)ethyl)pyrrolidine-2-carboxamide]: the Dmax was greater than 75% and the 50% degradation concentration (DC50) is less than 0.0025 µM. For the compound `Cc1cc([C@H](C(=O)N2C[C@H](O)C[C@H]2C(=O)N[C@@H](C)c2ccc(-c3scnc3C)cc2)[C@@H](C)CO[C@H]2C[C@@H](Oc3cc(N4C5CCC4CN(c4cc(-c6ccccc6O)nnc4N)C5)ccn3)C2)on1` [compound 482, (2S,4R)-1-((2R,3R)-4-((1s,3S)-3-((4-(3-(3-amino-6-(2-hydroxyphenyl)pyridazin-4-yl)-3,8-diazabicyclo[3.2.1]octan-8-yl)pyridin-2-yl)oxy)cyclobutoxy)-3-methyl-2-(3-methylisoxazol-5-yl)butanoyl)-4-hydroxy-N-((S)-1-(4-(4-methylthiazol-5-yl)phenyl)ethyl)pyrrolidine-2-carboxamide], the DC50 was greater than 0.03 µM. The same measure, in the same setting: to `Cc1ncsc1-c1ccc([C@H](C)NC(=O)[C@@H]2C[C@@H](O)CN2C(=O)[C@H](c2cc(OCC(F)(F)CN3CCC(O[C@H]4C[C@H](Oc5cc(N6C7CCC6CN(c6cc(-c8ccccc8O)nnc6N)C7)ccn5)C4)CC3)no2)C(C)C)cc1` [compound 483, (2S,4R)-1-((2S)-2-(3-(3-(4-((1r,3S)-3-((4-(3-(3-amino-6-(2-hydroxyphenyl)pyridazin-4-yl)-3,8-diazabicyclo[3.2.1]octan-8-yl)pyridin-2-yl)oxy)cyclobutoxy)piperidin-1-yl)-2,2-difluoropropoxy)isoxazol-5-yl)-3-methylbutanoyl)-4-hydroxy-N-((S)-1-(4-(4-methylthiazol-5-yl)phenyl)ethyl)pyrrolidine-2-carboxamide] belongs greater than 0.03 µM. As to `Cc1ncsc1-c1ccc([C@H](C)NC(=O)[C@@H]2C[C@@H](O)CN2C(=O)[C@@H](c2cc(OCC(F)(F)CN3CCC(O[C@H]4C[C@H](Oc5cc(N6C7CCC6CN(c6cc(-c8ccccc8O)nnc6N)C7)ccn5)C4)CC3)no2)C(C)C)cc1` [compound 484, (2S,4R)-1-((2R)-2-(3-(3-(4-((1r,3R)-3-((4-(3-(3-amino-6-(2-hydroxyphenyl)pyridazin-4-yl)-3,8-diazabicyclo[3.2.1]octan-8-yl)pyridin-2-yl)oxy)cyclobutoxy)piperidin-1-yl)-2,2-difluoropropoxy)isoxazol-5-yl)-3-methylbutanoyl)-4-hydroxy-N-((S)-1-(4-(4-methylthiazol-5-yl)phenyl)ethyl)pyrrolidine-2-carboxamide], the greatest degradation seen (Dmax) is greater than 75% and the DC50 was less than 0.0025 µM. `Cc1ncsc1-c1ccc([C@H](C)NC(=O)[C@@H]2C[C@@H](O)CN2C(=O)[C@H](c2cc(OCC[C@H]3CC[C@H](O[C@H]4C[C@H](Oc5cc(N6C7CCC6CN(c6cc(-c8ccccc8O)nnc6N)C7)ccn5)C4)CC3)no2)C(C)C)cn1` [compound 485, (2S,4R)-1-((2S)-2-(3-(2-((1R,4S)-4-((1r,3S)-3-((4-(3-(3-amino-6-(2-hydroxyphenyl)pyridazin-4-yl)-3,8-diazabicyclo[3.2.1]octan-8-yl)pyridin-2-yl)oxy)cyclobutoxy)cyclohexyl)ethoxy)isoxazol-5-yl)-3-methylbutanoyl)-4-hydroxy-N-((S)-1-(6-(4-methylthiazol-5-yl)pyridin-3-yl)ethyl)pyrrolidine-2-carboxamide]: the DC50 is greater than 0.03 µM. For `Cc1ncsc1-c1ccc([C@H](C)NC(=O)[C@@H]2C[C@@H](O)CN2C(=O)[C@@H](c2cc(OCC[C@H]3CC[C@H](O[C@H]4C[C@H](Oc5cc(N6C7CCC6CN(c6cc(-c8ccccc8O)nnc6N)C7)ccn5)C4)CC3)no2)C(C)C)cn1` [compound 486, (2S,4R)-1-((2R)-2-(3-(2-((1R,4R)-4-((1r,3R)-3-((4-(3-(3-amino-6-(2-hydroxyphenyl)pyridazin-4-yl)-3,8-diazabicyclo[3.2.1]octan-8-yl)pyridin-2-yl)oxy)cyclobutoxy)cyclohexyl)ethoxy)isoxazol-5-yl)-3-methylbutanoyl)-4-hydroxy-N-((S)-1-(6-(4-methylthiazol-5-yl)pyridin-3-yl)ethyl)pyrrolidine-2-carboxamide], the Dmax is greater than 75% and the DC50 is less than 0.0025 µM. Regarding `Cc1ncsc1-c1ccc([C@H](C)NC(=O)[C@@H]2C[C@@H](O)CN2C(=O)[C@H](c2cc(OCC[C@H]3CC[C@H](O[C@H]4C[C@H](Oc5cc(N6C7CCC6CN(c6cc(-c8ccccc8O)nnc6N)C7)ccn5)C4)CC3)no2)C(C)C)cc1` [compound 487, (2S,4R)-1-((2S)-2-(3-(2-((1R,4S)-4-((1r,3S)-3-((4-(3-(3-amino-6-(2-hydroxyphenyl)pyridazin-4-yl)-3,8-diazabicyclo[3.2.1]octan-8-yl)pyridin-2-yl)oxy)cyclobutoxy)cyclohexyl)ethoxy)isoxazol-5-yl)-3-methylbutanoyl)-4-hydroxy-N-((S)-1-(4-(4-methylthiazol-5-yl)phenyl)ethyl)pyrrolidine-2-carboxamide], the DC50 is greater than 0.03 µM. For `Cc1ncsc1-c1ccc([C@H](C)NC(=O)[C@@H]2C[C@@H](O)CN2C(=O)[C@@H](c2cc(OCC[C@H]3CC[C@H](O[C@H]4C[C@H](Oc5cc(N6C7CCC6CN(c6cc(-c8ccccc8O)nnc6N)C7)ccn5)C4)CC3)no2)C(C)C)cc1` [compound 488, (2S,4R)-1-((2R)-2-(3-(2-((1R,4R)-4-((1r,3R)-3-((4-(3-(3-amino-6-(2-hydroxyphenyl)pyridazin-4-yl)-3,8-diazabicyclo[3.2.1]octan-8-yl)pyridin-2-yl)oxy)cyclobutoxy)cyclohexyl)ethoxy)isoxazol-5-yl)-3-methylbutanoyl)-4-hydroxy-N-((S)-1-(4-(4-methylthiazol-5-yl)phenyl)ethyl)pyrrolidine-2-carboxamide], the Dmax was greater than 75% and the half-maximal degradation concentration (DC50) is less than 0.0025 µM.

Source of the values: patent publication US12539292B2, “BRM targeting compounds and associated methods of use” (Arvinas Operations, Inc., priority 2018, dated 2026).
